Measured values published in patent US10323283B2, “Editing profiling of PDE8A pre-mRNA: use as specific biomarker of ADARs activities in human tissues to diagnose and to predict and assess therapeutic efficacy and/or efficiency or potential drug side effects” (ALCEDIAG, priority 2010, dated 2019).

Experiments:
Format in all cases: cell-based, human
PDE8A pre-mRNA = PDE8A pre-mRNA editing profile by nested RT-PCR and CE-SSCP in SH-SY5Y cells; conditions: increased concentrations of IFNα, 48 hours
Protocol: The SH-SY5Y Human neuroblastoma cell line was purchased from ECACC (ref 94030304, lot number 06H021). Cells were cultured in high glucose D-MEM medium (Sigma, ref D6546) supplemented with 10% dialysed FCS (PAA, ref A15-507, lot number A50708-0050), 2 mM Glutamine (Sigma, G7513) and a 1× mix of Antibiotic-Antimycotic Stabilized (Sigma, ref A5955) at 37° C. under a humidified atmosphere of 5% CO2. The day preceding hIFNα treatment, SH-SY5Y cells were plated in 8 different 6-well plates at a density of 7.10^5 cells/well. On the next day, culture medium was removed and cells were incubated for 48 hours with hIFNα at the correct concentration (PBL biomedical laboratories, ref 111001-1, lot number 3734). On the day of the experiment, the hIFNα stock solution (10^5 I.U/ml in sterile 1×D-PBS stocked at −80° C.) was thawed on ice and then extemporaneously diluted in D-MEM supplemented with FCS and Antibiotic-Antimycotic, at the final concentrations of […]. In each well, cells were treated with 2 ml of the working solution. Aliquots of the stock-solution were used only once. […]
Human total blood RNA was extracted with the PAXgene Blood RNA kit 50 (PreAnalytiX, ref 762174) according to manufacturer's instructions. […] Aliquots (5 μl) of the amplification products were used to check the quantity and the quality of amplicons on a 2% agarose analytic gel. […]

ADAR1a-p150 = test: Quantification of ADAR1a-p150 mRNA expression by real-time PCR in SH-SY5Y cells; conditions: IFNα application during 24 hours
Protocol: (§1) The SH-SY5Y Human neuroblastoma cell line was purchased from ECACC (ref 94030304, lot number 06H021). Cells were cultured in high glucose D-MEM medium (Sigma, ref D6546) supplemented with 10% dialysed FCS (PAA, ref A15-507, lot number A50708-0050), 2 mM Glutamine (Sigma, G7513) and a 1× mix of Antibiotic-Antimycotic Stabilized (Sigma, ref A5955) at 37° C. under a humidified atmosphere of 5% CO2. The day preceding hIFNα treatment, SH-SY5Y cells were plated in 8 different 6-well plates at a density of 7.10^5 cells/well. […]
In order to quantify levels of ADAR1a mRNA expression in SH-SY5Y cells first-strand cDNA was synthesized by reverse transcription (as described above) and subjected to TaqMan quantitative Real-Time PCR analysis (Applied Biosystems,). The probe and primers used for the quantitative PCRs were from Applied Biosystems (Gene Expression Assays, Assay-On-Demand): • -ADAR1a: ref Hs 01020780_ml
Human GAPDH (product no. 4326317E; Applied Biosystems) was included in each multiplex PCR as an internal control. […] Quantitation of target gene expression in all samples was normalized to GAPDH expression by the equation Ct (target)−Ct (GAPDH)=ΔCt, where Ct is the threshold cycle number. The mean ΔCt value of samples from untreated cells was determined and used as a reference point for the samples corresponding to IFNα treated cells. […]

[1] = test system: PDE8A4 isoform of the protein; test: Western blot analysis of PDE8A protein concentrations in SH-SY5Y cells after IFNα; conditions: IFNα application during 24 hours
Protocol: as §1
After culture medium elimination, SH-SY5Y cells were washed two times with a phosphate buffer solution (PBS, Gibco Invitrogen Corporation), scraped and solubilized for 2 hr at 4° C. in solubilization buffer containing 150 mM NaCl, 5 mM EDTA, 1% Triton X-100, 0.1% sodium deoxycholate, 10 mM Tris-HCl [pH 8.0] and supplemented with protease inhibitors (1 mM phenylmethylsulfonyl fluoride, and one tablet of Complete™ mini protease inhibitors cocktail [Roche]). […] Proteins present in the supernatant (clear lysate) were quantified with a Qubit Fluorometer (Invitrogen, Q32857) and the Quant-IT Protein assay (Invitrogen, ref Q33211). […]

- estimated EC 50% of the effect on PDE8A4 isoform concentration versus concentrations of IFNα ([1]; western blot, ±SD, R^2 of the fit=0.7): 3.3±4.4 IU/ml
Substance: interferon alpha [IFNα]
- proportions of isoform B in the editing profile of PDE8A RNA (PDE8A pre-mRNA): relative increase
- RQ versus GAPDH of the ADAR1a-p150 (ADAR1a-p150): induced
- maximal effect on PDE8A4 isoform, % of the steady state concentration found in controls ([1]; from best fit): −47%
